# Source: article PMC4669708 (Cell Death & Disease, 2015)
# Test system: Jurkat E6.1 cells
# Assay: FasL-induced apoptosis, cell viability
# Format: cell-based
# Conditions: 100 ng/ml human FasL, 24 h; 0.5 μM ponatinib, 5 μM pazopanib
# Method: Cells were seeded in 12-, 24- or 96-well plates at proper cell density. For necroptosis or apoptosis assays, cells were incubated with the indicated compound combinations at concentrations stated for 14–24 h. Smac mimetic and z-VAD-FMK were added 30–60 min before treatment with TNF-α, FasL or TRAIL. Cell viability was determined using CellTiter Glo Luminescent Cell Viability Assay (Promega, Fitchburg, WI, USA) according to the manufacturer's instructions. Luminescence was recorded with a SpectraMax M5Multimode plate reader (Molecular Devices, Sunnyvale, CA, USA). For flow cytometry-based determination of viability, cells were harvested, collected by centrifugation, washed once and resuspended in staining buffer (1 × PBS, 10% FBS). Cells were incubated with 0.5 μg/ml PI for 10 min at room temperature (RT) in the dark. Flow cytometric analyses were performed on an LSR Fortessa (BD Biosciences) and analyzed with FlowJo software version 7.6.3 (Tree Star Inc, Ashland, OR, USA). Cell size was evaluated by forward scatter. PI-negative normal-sized cells were considered living and data were normalized to values of untreated controls. For detection of apoptosis, cells were resuspended in Annexin V Binding Buffer (BioLegend, San Diego, CA, USA) and stained with 0.5 μg/ml PI and Alexa Fluor 647 Annexin V (BioLegend) according to manufacturer's instructions.
structure (smiles),measurement,value
"Cc1ccc(C(=O)Nc2ccc(CN3CCN(C)CC3)c(C(F)(F)F)c2)cc1C#Cc1cnc2cccnn12 [ponatinib, Ponatinib]",inhibition of apoptotic cell death triggered by FasL,none of the drugs inhibited apoptotic cell death
